Measured values from ChEMBL document CHEMBL1135319, “New N-alkyl-1,2-dihydro-2-thioxo-3-pyridinecarbothioamides as antituberculous agents with improved pharmacokinetics” (Bioorg Med Chem Lett, 2002).
Values after ≈ are worked out from the molar mass of the structure shown.

Test system: not listed separately
Test: Toxicity after intraperitoneal administration in rats and mice
Conditions: rodentia, in vivo, ip

`OCC/N=C(\S)c1cccnc1S` and `CN(C)CC/N=C(\S)c1cccnc1S.Cl` cannot be ordered by LD50: > 2000 mg/kg for the first, > 2000 mg/kg for the second.

With `Cl.S/C(=N\CCc1ccccn1)c1cccnc1S` the LD50 was > 2000 mg/kg.

Test system: not listed separately
Test: Elimination half life after i.v. administration of compound in rats
Type: ADME, organism-based
Conditions: rat, in vivo, iv

Going from `OCC/N=C(\S)c1cccnc1S` to `CN(C)CC/N=C(\S)c1cccnc1S.Cl`, the half-life rises from 0.67 h to 2.72 h (4.1-fold).

Work on `Cl.S/C(=N\CCc1ccccn1)c1cccnc1S` yielded a half-life of 2.22 h.

Test system: Mycobacterium tuberculosis
Test: In vitro antibacterial activity against Mycobacterium tuberculosis MT ATCC H37Rv strain
Type: functional
Conditions: not given

Compared with `OCC/N=C(\S)c1cccnc1S`, `CC/N=C(\S)c1cccnc1S` is 4-fold lower in MIC: 2 µg/mL (≈ 9.33 µM) for the first, 0.5 µg/mL (≈ 2.52 µM) for the second.

First: CN(C)CC/N=C(\S)c1cccnc1S.Cl
Second: CCCCCCC/N=C(\S)c1cccnc1S
The MIC of the first is 16-fold higher: 8 µg/mL for the first, 0.5 µg/mL (≈ 1.86 µM) for the second.

First: Cl.S/C(=N\CCN1CCCC1)c1cccnc1S
Second: Cl.S/C(=N\CCCN1CCOCC1)c1cccnc1S
The MIC of the first is 2-fold higher: 8 µg/mL for the first, 4 µg/mL for the second.

Compared with `CN1CCN(CCC/N=C(\S)c2cccnc2S)CC1.Cl`, `Cl.S/C(=N\CCc1ccccn1)c1cccnc1S` is 2-fold lower in MIC: 8 µg/mL for the first, 4 µg/mL for the second.

For `CC[C@@H](CO)NCCN[C@@H](CC)CO` [ETHAMBUTOL], the MIC was ≤ 2 µg/mL.

Test system: Mycobacterium avium
Test: In vitro antibacterial activity of compound against Mycobacterium avium MAC ISS-486 (wild type strain) isolated from infected patients.
Type: functional
Conditions: not given

Compared with `OCC/N=C(\S)c1cccnc1S`, `CC/N=C(\S)c1cccnc1S` is 2-fold lower in MIC: 8 µg/mL (≈ 37.3 µM) for the first, 4 µg/mL (≈ 20.2 µM) for the second.

First: CN(C)CC/N=C(\S)c1cccnc1S.Cl
Second: CCCCCCC/N=C(\S)c1cccnc1S
The MIC of the first is higher: > 16 µg/mL for the first, 4 µg/mL (≈ 14.9 µM) for the second.

`Cl.S/C(=N\CCN1CCCC1)c1cccnc1S` and `Cl.S/C(=N\CCCN1CCOCC1)c1cccnc1S` cannot be ordered by MIC: > 16 µg/mL for the first, > 16 µg/mL for the second.

Going from `CN1CCN(CCC/N=C(\S)c2cccnc2S)CC1.Cl` to `Cl.S/C(=N\CCc1ccccn1)c1cccnc1S`, the MIC falls from > 16 µg/mL to 8 µg/mL.

Work on `CC[C@@H](CO)NCCN[C@@H](CC)CO` [ETHAMBUTOL] yielded an MIC of 2 µg/mL (≈ 9.79 µM).

Test system: not listed separately
Test: Volume of steady state distribution after i.v. administration in rats
Type: ADME, organism-based
Conditions: rat, in vivo, iv; read-out: Vss

Going from `OCC/N=C(\S)c1cccnc1S` to `CC/N=C(\S)c1cccnc1S`, the Vd falls from 4.17 L/kg to 0.93 L/kg (4.5-fold).

Going from `CN(C)CC/N=C(\S)c1cccnc1S.Cl` to `CCCCCCC/N=C(\S)c1cccnc1S`, the Vd falls from 11.2 L/kg to 1.28 L/kg (8.8-fold).

With `Cl.S/C(=N\CCc1ccccn1)c1cccnc1S` the Vd was 14.5 L/kg.

Test system: Mycobacterium avium
Test: In vitro antibacterial activity of compound against Mycobacterium avium MAC ANI (wild type strain) isolated from infected patients.
Type: functional
Conditions: not given

`OCC/N=C(\S)c1cccnc1S` and `CC/N=C(\S)c1cccnc1S` are the same in MIC: 4 µg/mL (≈ 18.7 µM) for the first, 4 µg/mL (≈ 20.2 µM) for the second.

Compared with `CN(C)CC/N=C(\S)c1cccnc1S.Cl`, `CCCCCCC/N=C(\S)c1cccnc1S` is lower in MIC: > 16 µg/mL for the first, 4 µg/mL (≈ 14.9 µM) for the second.

`Cl.S/C(=N\CCN1CCCC1)c1cccnc1S` and `Cl.S/C(=N\CCCN1CCOCC1)c1cccnc1S` cannot be ordered by MIC: > 16 µg/mL for the first, > 16 µg/mL for the second.

First: CN1CCN(CCC/N=C(\S)c2cccnc2S)CC1.Cl
Second: Cl.S/C(=N\CCc1ccccn1)c1cccnc1S
The MIC of the first is higher: > 16 µg/mL for the first, 8 µg/mL for the second.

With `CC[C@@H](CO)NCCN[C@@H](CC)CO` [ETHAMBUTOL] the MIC was 1 µg/mL (≈ 4.89 µM).

Test system: not listed separately
Test: Clearance rate after i.v. administration in rats
Type: ADME, organism-based
Conditions: rat, in vivo, iv

Going from `OCC/N=C(\S)c1cccnc1S` to `CC/N=C(\S)c1cccnc1S`, the clearance falls from 93.2 mL/min/kg to 20 mL/min/kg (4.7-fold).

`CN(C)CC/N=C(\S)c1cccnc1S.Cl` and `CCCCCCC/N=C(\S)c1cccnc1S` are within 1.5-fold of each other in clearance: 60.8 mL/min/kg for the first, 50 mL/min/kg for the second.

`Cl.S/C(=N\CCc1ccccn1)c1cccnc1S` gave a clearance of 144 mL/min/kg.

Test system: Mycobacterium tuberculosis
Test: In vitro antibacterial activity against Mycobacterium tuberculosis MT-2 (wild type strain) isolated from infected patients.
Type: functional
Conditions: not given

Compared with `OCC/N=C(\S)c1cccnc1S`, `CC/N=C(\S)c1cccnc1S` is 8-fold lower in MIC: 8 µg/mL (≈ 37.3 µM) for the first, 1 µg/mL (≈ 5.04 µM) for the second.

Going from `CN(C)CC/N=C(\S)c1cccnc1S.Cl` to `CCCCCCC/N=C(\S)c1cccnc1S`, the MIC falls from > 16 µg/mL to 2 µg/mL (≈ 7.45 µM).

Compared with `Cl.S/C(=N\CCN1CCCC1)c1cccnc1S`, `Cl.S/C(=N\CCCN1CCOCC1)c1cccnc1S` is lower in MIC: > 16 µg/mL for the first, 8 µg/mL for the second.

Going from `CN1CCN(CCC/N=C(\S)c2cccnc2S)CC1.Cl` to `Cl.S/C(=N\CCc1ccccn1)c1cccnc1S`, the MIC falls from > 16 µg/mL to 1 µg/mL.

In the case of `CC[C@@H](CO)NCCN[C@@H](CC)CO` [ETHAMBUTOL], the MIC is reported as ≤ 2 µg/mL.

Test system: Mycobacterium avium
Test: In vitro antibacterial activity of compound against Mycobacterium avium MAC AN2 wild type strain) isolated from infected patients.
Type: functional
Conditions: not given

`OCC/N=C(\S)c1cccnc1S` and `CC/N=C(\S)c1cccnc1S` are the same in MIC: 8 µg/mL (≈ 37.3 µM) for the first, 8 µg/mL (≈ 40.3 µM) for the second.

Compared with `CN(C)CC/N=C(\S)c1cccnc1S.Cl`, `CCCCCCC/N=C(\S)c1cccnc1S` is lower in MIC: > 16 µg/mL for the first, 4 µg/mL (≈ 14.9 µM) for the second.

`Cl.S/C(=N\CCN1CCCC1)c1cccnc1S` and `Cl.S/C(=N\CCCN1CCOCC1)c1cccnc1S` cannot be ordered by MIC: > 16 µg/mL for the first, > 16 µg/mL for the second.

Going from `CN1CCN(CCC/N=C(\S)c2cccnc2S)CC1.Cl` to `Cl.S/C(=N\CCc1ccccn1)c1cccnc1S`, the MIC falls from > 16 µg/mL to 8 µg/mL.

With `CC[C@@H](CO)NCCN[C@@H](CC)CO` [ETHAMBUTOL] the MIC was 0.5 µg/mL (≈ 2.45 µM).

Test system: not listed separately
Test: Area under the curve (Concentration) was determined for the compound as AUC with limits 0-8 after i.v. administration in rats
Type: ADME, organism-based
Design: route intravenous
Conditions: rat, in vivo, iv

Compared with `OCC/N=C(\S)c1cccnc1S`, `CC/N=C(\S)c1cccnc1S` is 4.2-fold higher in AUC: 3730 ng·h/mL for the first, 15800 ng·h/mL for the second.

`CN(C)CC/N=C(\S)c1cccnc1S.Cl` and `CCCCCCC/N=C(\S)c1cccnc1S` are within 1.5-fold of each other in AUC: 6910 ng·h/mL for the first, 8250 ng·h/mL for the second.

`Cl.S/C(=N\CCc1ccccn1)c1cccnc1S` showed an AUC of 4700 ng·h/mL.

Test system: Mycobacterium avium
Test: In vitro antibacterial activity of compound against Mycobacterium avium MAC ATCC 15769
Type: functional
Conditions: not given

First: OCC/N=C(\S)c1cccnc1S
Second: CC/N=C(\S)c1cccnc1S
The MIC of the first is 2-fold higher: 8 µg/mL (≈ 37.3 µM) for the first, 4 µg/mL (≈ 20.2 µM) for the second.

Going from `CN(C)CC/N=C(\S)c1cccnc1S.Cl` to `CCCCCCC/N=C(\S)c1cccnc1S`, the MIC falls from > 16 µg/mL to 2 µg/mL (≈ 7.45 µM).

`Cl.S/C(=N\CCN1CCCC1)c1cccnc1S` and `Cl.S/C(=N\CCCN1CCOCC1)c1cccnc1S` cannot be ordered by MIC: > 16 µg/mL for the first, > 16 µg/mL for the second.

Going from `CN1CCN(CCC/N=C(\S)c2cccnc2S)CC1.Cl` to `Cl.S/C(=N\CCc1ccccn1)c1cccnc1S`, the MIC falls from > 16 µg/mL to 4 µg/mL.

Test system: Mycobacterium tuberculosis
Test: In vitro antibacterial activity against Mycobacterium tuberculosis MT-1 (wild type strain) isolated from infected patients.
Type: functional
Conditions: not given

Compared with `OCC/N=C(\S)c1cccnc1S`, `CC/N=C(\S)c1cccnc1S` is 4-fold lower in MIC: 4 µg/mL (≈ 18.7 µM) for the first, 1 µg/mL (≈ 5.04 µM) for the second.

First: CN(C)CC/N=C(\S)c1cccnc1S.Cl
Second: CCCCCCC/N=C(\S)c1cccnc1S
The MIC of the first is 8-fold higher: 16 µg/mL for the first, 2 µg/mL (≈ 7.45 µM) for the second.

Going from `Cl.S/C(=N\CCN1CCCC1)c1cccnc1S` to `Cl.S/C(=N\CCCN1CCOCC1)c1cccnc1S`, the MIC falls from 16 µg/mL to 8 µg/mL (2-fold).

Compared with `CN1CCN(CCC/N=C(\S)c2cccnc2S)CC1.Cl`, `Cl.S/C(=N\CCc1ccccn1)c1cccnc1S` is 4-fold lower in MIC: 16 µg/mL for the first, 4 µg/mL for the second.

With `CC[C@@H](CO)NCCN[C@@H](CC)CO` [ETHAMBUTOL] the MIC was ≤ 2 µg/mL.

Test system: Mycobacterium avium
Test: In vitro antibacterial activity of compound against Mycobacterium avium MAC AN3 (wild type strain) isolated from infected patients.
Type: functional
Conditions: not given

First: OCC/N=C(\S)c1cccnc1S
Second: CC/N=C(\S)c1cccnc1S
The MIC of the first is 2-fold lower: 4 µg/mL (≈ 18.7 µM) for the first, 8 µg/mL (≈ 40.3 µM) for the second.

First: CN(C)CC/N=C(\S)c1cccnc1S.Cl
Second: CCCCCCC/N=C(\S)c1cccnc1S
The MIC of the first is higher: > 16 µg/mL for the first, 4 µg/mL (≈ 14.9 µM) for the second.

`Cl.S/C(=N\CCN1CCCC1)c1cccnc1S` and `Cl.S/C(=N\CCCN1CCOCC1)c1cccnc1S` cannot be ordered by MIC: > 16 µg/mL for the first, > 16 µg/mL for the second.

First: CN1CCN(CCC/N=C(\S)c2cccnc2S)CC1.Cl
Second: Cl.S/C(=N\CCc1ccccn1)c1cccnc1S
The MIC of the first is higher: > 16 µg/mL for the first, 8 µg/mL for the second.

Compound `CC[C@@H](CO)NCCN[C@@H](CC)CO` [ETHAMBUTOL] has an MIC of 2 µg/mL (≈ 9.79 µM).

Test system: not listed separately
Test: Mean residence time (Pharmacokinetic property) after i.v. administration in rats
Type: ADME, organism-based
Conditions: rat, in vivo, iv

First: OCC/N=C(\S)c1cccnc1S
Second: CN(C)CC/N=C(\S)c1cccnc1S.Cl
The MRT of the first is 3.9-fold lower: 0.72 h for the first, 2.83 h for the second.

With `Cl.S/C(=N\CCc1ccccn1)c1cccnc1S` the MRT was 1.77 h.
